Tests used:
HCT-116 [1] = experiment: Antitumor activity against MTAP-knockout human HCT-116 cells xenografted in Nu/Nu mouse model assessed as inhibition of tumor growth at 50 mg/kg, po qd measured after 21 days relative to control; type: functional; settings: HCT-116, 504 h, time 21 day, read-out: TGI
[2] = molecular target: S-adenosylmethionine synthase isoform type-2 (Homo sapiens, UniProt P31153); experiment: Inhibition of MAT2A (unknown origin) using L-methionine as substrate preincubated for 30 mins followed by substrate addition measured after 60 mins by colorimetric assay
Chain of S-adenosylmethionine synthase isoform type-2 (P31153 whole entry, canonical isoform): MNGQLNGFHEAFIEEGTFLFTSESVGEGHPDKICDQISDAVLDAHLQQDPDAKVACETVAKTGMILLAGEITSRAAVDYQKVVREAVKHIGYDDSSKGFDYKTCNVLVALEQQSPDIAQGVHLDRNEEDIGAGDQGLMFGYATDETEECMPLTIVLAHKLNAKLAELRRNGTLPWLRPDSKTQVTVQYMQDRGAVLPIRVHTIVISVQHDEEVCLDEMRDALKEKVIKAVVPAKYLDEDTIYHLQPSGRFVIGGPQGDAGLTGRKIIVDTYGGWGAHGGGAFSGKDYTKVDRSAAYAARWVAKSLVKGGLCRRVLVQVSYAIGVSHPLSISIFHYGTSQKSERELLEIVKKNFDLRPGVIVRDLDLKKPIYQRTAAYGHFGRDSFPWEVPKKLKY

HCT-116 [3] = experiment: Antitumor activity against MTAP-knockout human HCT-116 cells xenografted in Nu/Nu mouse model assessed as reduction in SAM concentration at 20 mg/kg, po qd administered for 21 days measured after 10 hrs post last dose relative to control; type: functional; set-up: scale not given: the % may be the effect or the level left; settings: time 514 hrs
Cytochrome P450 2C19 = Cytochrome P450 2C19 (Homo sapiens, UniProt P33261); experiment: Inhibition of human liver microsomes CYP2C19 incubated for 5 mins with compound followed by substrate and NADPH addition measured after 10 mins by LC-MS/MS analysis; type: ADME, Microsome
Chain of Cytochrome P450 2C19 (P33261 whole entry): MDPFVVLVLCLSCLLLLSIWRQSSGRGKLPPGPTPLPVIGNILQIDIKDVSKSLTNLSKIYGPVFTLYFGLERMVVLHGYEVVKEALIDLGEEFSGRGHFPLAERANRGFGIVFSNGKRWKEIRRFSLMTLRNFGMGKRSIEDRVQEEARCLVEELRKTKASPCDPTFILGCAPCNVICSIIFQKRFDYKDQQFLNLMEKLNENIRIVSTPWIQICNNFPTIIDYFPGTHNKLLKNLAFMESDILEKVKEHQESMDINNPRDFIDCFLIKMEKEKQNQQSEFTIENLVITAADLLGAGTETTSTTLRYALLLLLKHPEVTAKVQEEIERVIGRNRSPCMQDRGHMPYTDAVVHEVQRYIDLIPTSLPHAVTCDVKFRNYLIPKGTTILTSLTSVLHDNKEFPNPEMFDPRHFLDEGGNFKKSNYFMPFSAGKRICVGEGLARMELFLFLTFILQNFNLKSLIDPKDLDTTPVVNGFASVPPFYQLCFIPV

[4] = Plasma protein binding in rat assessed as unbound fraction at 1 uM incubated for 6 hrs by LC-MS/MS based rapid equlibrium dialysis method; type: ADME, cell-free
[5] = Toxicity in Nu/Nu mouse xenografted with MTAP-knockout human HCT-116 cells assessed as maximum body weight loss at 10 to 20 mg/kg, po qd measured after 21 days; type: organism-based; settings: in vivo, 504 h, dose 10-20 mg/kg, time 21 day
[6] = Tmax in male Sprague-Dawley rat plasma at 10 mg/kg, po incubated for 24 hrs by LC-MS/MS analysis; type: ADME, organism-based
[7] = Half life in male Sprague-Dawley rat plasma at 10 mg/kg, po incubated for 24 hrs by LC-MS/MS analysis; type: ADME, organism-based
[8] = Tmax in ICR mouse plasma at 10 mg/kg, IG measured after 24 hrs by LC-MS/MS analysis; type: ADME, organism-based; settings: po
HCT-116 [9] = experiment: Antiproliferative activity against MTAP knockout human HCT-116 assessed as inhibition of cell proliferation incubated for 6 days by alamar blue reagent based analysis; type: functional; settings: HCT-116, 144 h
[10] = AUC(0 to last) in male Sprague-Dawley rat at 10 mg/kg, po incubated for 24 hrs by LC-MS/MS analysis; type: ADME, organism-based; set-up: dose 10 mg/kg, time 24 hrs, route po; settings: in vivo
[11] = Metabolic stability in human liver microsomes assessed as intrinsic clearance; type: ADME, Microsome; settings: read-out: CLH
[12] = Cmax in ICR mouse plasma at 10 mg/kg, IG measured after 24 hrs by LC-MS/MS analysis; type: ADME, organism-based; set-up: dose 10 mg/kg, time 24 hrs, route ig; settings: po
HCT-116 [13] = experiment: Antitumor activity against MTAP-knockout human HCT-116 cells xenografted in Nu/Nu mouse model assessed as tumor growth inhibition at 20 mg/kg, po qd measured after 21 days relative to control; type: functional; settings: HCT-116, 504 h, time 21 day, read-out: TGI
Cytochrome P450 3A4 = Cytochrome P450 3A4 (Homo sapiens, UniProt P08684); experiment: Inhibition of human liver microsomes CYP3A4 using Midazolam as substrate incubated for 5 mins with compound followed by substrate and NADPH addition measured after 5 mins by LC-MS/MS analysis; type: ADME, Microsome
Chain of Cytochrome P450 3A4 (P08684 whole entry): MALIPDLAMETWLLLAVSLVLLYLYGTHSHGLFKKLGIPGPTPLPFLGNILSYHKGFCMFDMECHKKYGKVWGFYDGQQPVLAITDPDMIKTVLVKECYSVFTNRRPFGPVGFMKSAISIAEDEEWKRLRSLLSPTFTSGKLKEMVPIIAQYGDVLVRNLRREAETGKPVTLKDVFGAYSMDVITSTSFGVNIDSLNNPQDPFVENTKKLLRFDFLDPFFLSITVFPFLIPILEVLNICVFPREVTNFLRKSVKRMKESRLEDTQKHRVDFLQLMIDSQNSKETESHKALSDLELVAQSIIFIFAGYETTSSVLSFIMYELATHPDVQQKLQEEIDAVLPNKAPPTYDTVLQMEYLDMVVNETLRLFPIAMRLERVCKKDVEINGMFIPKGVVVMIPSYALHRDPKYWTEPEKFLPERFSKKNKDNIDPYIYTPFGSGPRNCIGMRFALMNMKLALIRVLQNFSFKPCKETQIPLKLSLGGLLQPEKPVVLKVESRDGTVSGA

[14] = Cmax in male Sprague-Dawley rat plasma at 10 mg/kg, po incubated for 24 hrs by LC-MS/MS analysis; type: ADME, organism-based; set-up: time 24 hrs, dose 10 mg/kg, route po
[15] = Plasma protein binding in mouse assessed as unbound fraction at 1 uM incubated for 6 hrs by LC-MS/MS based rapid equlibrium dialysis method; type: ADME, cell-free
HCT-116 [16] = experiment: Antitumor activity against MTAP-knockout human HCT-116 cells xenografted in Nu/Nu mouse model assessed as tumor growth inhibition at 10 mg/kg, po qd measured after 21 days relative to control; type: functional; settings: HCT-116, 504 h, time 21 day, read-out: TGI
[17] = Half life in male Beagle dog at 3 mg/kg, po incubated for 24 hrs by LC-MS/MS analysis; type: ADME, organism-based, Canis lupus familiaris; settings: in vivo
[18] = Plasma protein binding in dog assessed as unbound fraction at 1 uM incubated for 6 hrs by LC-MS/MS based rapid equlibrium dialysis method; type: ADME, cell-free, Canis lupus familiaris
[19] = AUClast in ICR mouse plasma at 10 mg/kg, IG incubated for 24 hrs by LC-MS/MS analysis; type: ADME, organism-based; set-up: dose 10 mg/kg, time 24 hrs, route ig; settings: po
[20] = AUClast in male Beagle dog at 3 mg/kg, po incubated for 24 hrs by LC-MS/MS analysis; type: ADME, organism-based, Canis lupus familiaris; set-up: dose 3 mg/kg, time 24 hrs, route po; settings: in vivo
[21] = Tmax in male Beagle dog at 3 mg/kg, po incubated for 24 hrs by LC-MS/MS analysis; type: ADME, organism-based, Canis lupus familiaris; settings: in vivo
[22] = Cmax in male Beagle dog at 3 mg/kg, po incubated for 24 hrs by LC-MS/MS analysis; type: ADME, organism-based, Canis lupus familiaris; set-up: dose 3 mg/kg, time 24 hrs, route po; settings: in vivo
Cytochrome P450 2D6 = Cytochrome P450 2D6 (Homo sapiens, UniProt P10635); experiment: Inhibition of human liver microsomes CYP2D6 using Dextromethorphan as substrate incubated for 5 mins with compound followed by substrate and NADPH addition measured after 10 mins by LC-MS/MS analysis; type: ADME, Microsome
Chain of Cytochrome P450 2D6 (P10635 whole entry): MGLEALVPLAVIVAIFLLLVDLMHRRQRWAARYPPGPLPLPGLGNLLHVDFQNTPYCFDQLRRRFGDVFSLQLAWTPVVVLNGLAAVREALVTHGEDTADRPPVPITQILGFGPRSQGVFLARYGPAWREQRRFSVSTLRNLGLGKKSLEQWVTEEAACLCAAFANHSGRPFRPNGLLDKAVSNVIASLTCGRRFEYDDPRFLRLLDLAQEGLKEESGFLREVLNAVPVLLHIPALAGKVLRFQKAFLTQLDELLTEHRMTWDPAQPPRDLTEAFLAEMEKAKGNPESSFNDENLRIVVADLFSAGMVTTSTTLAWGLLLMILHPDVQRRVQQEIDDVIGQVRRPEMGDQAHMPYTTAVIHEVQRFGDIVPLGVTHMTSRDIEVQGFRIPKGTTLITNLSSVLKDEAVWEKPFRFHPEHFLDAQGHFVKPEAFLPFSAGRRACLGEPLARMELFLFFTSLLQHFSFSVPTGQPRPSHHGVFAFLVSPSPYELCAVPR

Cytochrome P450 2C9 = Cytochrome P450 2C9 (Homo sapiens, UniProt P11712); experiment: Inhibition of human liver microsomes CYP2C9 using Diclofenac as substrate incubated for 5 mins with compound followed by substrate and NADPH addition measured after 10 mins by LC-MS/MS analysis; type: ADME, Microsome
Chain of Cytochrome P450 2C9 (P11712 whole entry): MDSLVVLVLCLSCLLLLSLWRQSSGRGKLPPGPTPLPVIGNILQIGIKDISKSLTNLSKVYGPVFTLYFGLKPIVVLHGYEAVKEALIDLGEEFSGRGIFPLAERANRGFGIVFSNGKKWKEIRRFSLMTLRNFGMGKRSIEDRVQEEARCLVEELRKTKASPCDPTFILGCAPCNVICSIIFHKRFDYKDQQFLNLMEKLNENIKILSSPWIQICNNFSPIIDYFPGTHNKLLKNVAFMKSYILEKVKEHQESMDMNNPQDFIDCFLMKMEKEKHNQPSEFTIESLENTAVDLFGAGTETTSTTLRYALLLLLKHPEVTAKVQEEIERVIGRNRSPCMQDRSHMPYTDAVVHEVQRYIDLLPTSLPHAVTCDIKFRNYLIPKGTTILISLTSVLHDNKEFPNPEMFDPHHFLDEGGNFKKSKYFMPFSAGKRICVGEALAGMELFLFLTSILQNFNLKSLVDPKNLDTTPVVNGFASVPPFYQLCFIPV

[23] = Half life in ICR mouse plasma at 10 mg/kg, IG measured after 24 hrs by LC-MS/MS analysis; type: ADME, organism-based; settings: po
[24] = Plasma protein binding in human assessed as unbound fraction at 1 uM incubated for 6 hrs by LC-MS/MS based rapid equlibrium dialysis method relative to control; type: ADME, cell-free

With `COc1ccc(-c2c(Nc3ccccn3)[nH]c3c(C4=CCCCC4)c(-c4ccccc4)nn3c2=O)cc1` the inhibition in vivo at 50 mg/kg (HCT-116 [1]) was 43%.

`CNc1nc(=O)c(-c2ccccc2Cl)c2cc(C(F)F)ccn12` gave an IC50 [2] of 49 nM.

For `O=c1nc(NC2CC2)n2ccc(C(F)(F)F)cc2c1-c1ccccc1F`, the IC50 [2] was 120 nM.

For `CNc1nc(=O)c(-c2cccc(Cl)c2)c2cc(C(F)(F)F)ccn12`, the IC50 [2] was 107 nM.

With `CNc1nc(=O)c(-c2cccc(C)c2)c2cc(C(F)(F)F)ccn12` the IC50 [2] was 60 nM.

Work on `CNc1nc(=O)c(-c2ccccc2Cl)c2cc(C)ccn12` yielded an IC50 [2] of 143 nM.

Compound `O=C(C1CC1)N1CC(=O)N(c2ccccc2Cl)c2cc(C(F)(F)F)ccc21` has an IC50 [2] of 2550 nM.

With `CC(C)Nc1nc(=O)c(-c2ccccc2F)c2cc(C(F)(F)F)ccn12` the IC50 [2] was 80 nM.

Work on `O=c1nc(NC2CC2)n2ccc(C(F)(F)F)cc2c1-c1cccnc1F` yielded an Activity (HCT-116 [3]) of 79%, an IC50 (Cytochrome P450 2C19) of over 10000 nM and a fraction unbound at 6 h, 1 µM [4] of 0.329. The Activity [5] was 11%, the Tmax [6] was 3.3 h and the half-life [7] was 3 h. The IC50 [2] was 40 nM, the Tmax [8] was 0.67 h and the IC50 (HCT-116 [9]) was 273 nM. For the same compound, the AUC(0-t) at 24 h [10] was 16200 ng·h/mL, the CLint scaled [11] was 1.4 mL/min/kg and the Cmax [12] was 16200 ng/mL. The inhibition in vivo at 20 mg/kg (HCT-116 [13]) was 60%, the IC50 (Cytochrome P450 3A4) was over 10000 nM and the Cmax [14] was 2820 ng/mL. The fraction unbound at 6 h, 1 µM [15] was 0.091, the inhibition in vivo at 10 mg/kg (HCT-116 [16]) was 48% and the half-life [17] was 2.6 h. For the same compound, the fraction unbound at 6 h, 1 µM [18] was 0.325, the AUC(0-t) at 24 h [19] was 34000 ng·h/mL and the AUC(0-t) at 24 h [20] was 9310 ng·h/mL. The Tmax [21] was 1.3 h, the Cmax [22] was 1680 ng/mL and the IC50 (Cytochrome P450 2D6) was over 10000 nM. It also gave an IC50 (Cytochrome P450 2C9) of over 10000 nM, a half-life [23] of 3.3 h and a fraction unbound at 6 h, 1 µM [24] of 0.216.

`CNc1nc(=O)c(-c2ccccc2F)c2cc(C(F)(F)F)ccn12` gave an IC50 [2] of 45 nM.

`CNc1nc(=O)c(-c2ccccc2Cl)c2cc(C(F)(F)F)cnn12` gave an IC50 [2] of over 10000 nM.

Compound `CNc1nc(=O)c(-c2cccc(F)c2)c2cc(C(F)(F)F)ccn12` has an IC50 [2] of 42 nM.

`CNc1nc(=O)c(-c2ccccc2)c2cc(C(F)(F)F)ccn12` showed an IC50 [2] of 65 nM.

In the case of `CNc1nc(=O)c(-c2ccc(C)cc2)c2cc(C(F)(F)F)ccn12`, the IC50 [2] is reported as 347 nM.

With `CNc1nc(=O)c(-c2ccccc2Cl)c2cc(C(F)(F)F)ccn12` the IC50 [2] was 49 nM.

With `CNc1nc(=O)c(-c2c(F)cccc2F)c2cc(C(F)(F)F)ccn12` the IC50 [2] was 65 nM.

With `CNc1nc(=O)n(-c2ccccc2Cl)c2cc(C(F)(F)F)sc12` the IC50 [2] was 268 nM.

With `CNc1nc(=O)c(-c2ccccc2Cl)c2cc(C3CC3)ccn12` the IC50 [2] was 53 nM.

In the case of `CNc1nc(=O)c(-c2cccc(C#N)c2)c2cc(C(F)(F)F)ccn12`, the IC50 [2] is reported as 199 nM.

In the case of `O=c1nc(NC2CC2)n2ccc(C(F)(F)F)cc2c1-c1cccc(F)c1`, the IC50 [2] is reported as 46 nM.

With `O=c1nc(NC2CCC2)n2ccc(C(F)(F)F)cc2c1-c1ccccc1F` the IC50 [2] was 121 nM.

Work on `CNc1nc(=O)n(-c2ccccc2Cl)c2c1CCN(C)C2` yielded an IC50 [2] of over 10000 nM.

With `O=c1nc(NCC(F)F)n2ccc(C(F)(F)F)cc2c1-c1ccccc1F` the IC50 [2] was 119 nM.

Compound `CNc1cc(=O)n(-c2ccccc2Cl)c2nc(C(F)(F)F)ccc12` has an IC50 [2] of 252 nM.

In the case of `O=c1nc(N2CCCC2)n2ccc(C(F)(F)F)cc2c1-c1ccccc1F`, the IC50 [2] is reported as 531 nM.

`O=c1nc(N[C@H]2C[C@H](O)C2)n2ccc(C(F)(F)F)cc2c1-c1ccccc1F` showed an IC50 [2] of 192 nM.

`O=c1nc(NC2CC2)n2ccc(C(F)(F)F)cc2c1-c1cccc(O)c1F` gave an IC50 [2] of 31 nM, a Tmax [8] of 0.33 h and a Cmax [12] of 3960 ng/mL. The AUC(0-t) at 24 h [19] was 8880 ng·h/mL and the half-life [23] was 7.7 h.

Work on `CNc1nc(=O)c(-c2ccccc2C(C)C)c2cc(C(F)(F)F)ccn12` yielded an IC50 [2] of 68 nM.

Source: ChEMBL document CHEMBL5390303, “Discovery of Potent and Oral Bioavailable MAT2A Inhibitors for the Treatment of MTAP-Deleted Tumors” (ACS Med Chem Lett, 2023)
